Data as given in PubChem BioAssay AID1918937 (Molecular Pharmacology Branch, DTP, NCI, 2023).

Test system: 521955-158-R2-J5-PDC complex spheroid viability
Assay: Anticancer human tumor 521955-158-R2-J5-PDC patient-derived pancreatic carcinoma cell line growth inhibition
Details: for IC50: curve of first compound; for viability, T/C: stronger effect = lower value; active means viability on the fitted dose curve at most 10% of control; inactive means the rest
Outline: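 Drug combinations with the LSD1 inhibitor iadademstat tested on tumor cells co-cultured as spheroids with endothelial cells and mesenchymal stem cells. Concentrations descended in half-log increments from clinical Cmax or 10 microM.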

[1] = second compound 0.1 µM, first compound 0.0316 µM
[2] = second compound 0.1 µM, first compound 0.1 µM
[3] = second compound 0.1 µM, first compound 0.316 µM
[4] = second compound 0.1 µM, first compound 1 µM
[5] = second compound 0.1 µM, first compound 3.16 µM
[6] = second compound 0.1 µM, first compound 10 µM
[7] = second compound 0.316 µM, first compound 0.0316 µM
[8] = second compound 0.316 µM, first compound 0.1 µM
[9] = second compound 0.316 µM, first compound 0.316 µM
[10] = second compound 0.316 µM, first compound 1 µM
[11] = second compound 0.316 µM, first compound 3.16 µM
[12] = second compound 0.316 µM, first compound 10 µM
[13] = second compound 1 µM, first compound 0.0316 µM
[14] = second compound 1 µM, first compound 0.1 µM
[15] = second compound 1 µM, first compound 0.316 µM
[16] = second compound 1 µM, first compound 1 µM
[17] = second compound 1 µM, first compound 3.16 µM
[18] = second compound 1 µM, first compound 10 µM
[19] = second compound 3.16 µM, first compound 0.0316 µM
[20] = second compound 3.16 µM, first compound 0.1 µM
[21] = second compound 3.16 µM, first compound 0.316 µM
[22] = second compound 3.16 µM, first compound 1 µM
[23] = second compound 3.16 µM, first compound 3.16 µM
[24] = second compound 3.16 µM, first compound 10 µM
[25] = second compound 10 µM, first compound 0.0316 µM
[26] = second compound 10 µM, first compound 0.1 µM
[27] = second compound 10 µM, first compound 0.316 µM
[28] = second compound 10 µM, first compound 1 µM
[29] = second compound 10 µM, first compound 3.16 µM
[30] = second compound 10 µM, first compound 10 µM
[31] = second compound 0.1 µM, first compound 0.00316 µM
[32] = second compound 0.1 µM, first compound 0.01 µM
[33] = second compound 0.316 µM, first compound 0.00316 µM
[34] = second compound 0.316 µM, first compound 0.01 µM
[35] = second compound 1 µM, first compound 0.00316 µM
[36] = second compound 1 µM, first compound 0.01 µM
[37] = second compound 3.16 µM, first compound 0.00316 µM
[38] = second compound 3.16 µM, first compound 0.01 µM
[39] = second compound 10 µM, first compound 0.00316 µM
[40] = second compound 10 µM, first compound 0.01 µM
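Further: spheroids exposed to agents for seven days.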
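Wherever viability, T/C is given: percent of DMSO vehicle control luminescence viability.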

CC(C)c1c(-c2ccccc2)nc2c(C#N)c[nH]n2c1=O + NC1CC1c1ccc(-c2cccc(O)c2)cc1
> 10 µM: IC50 (second compound 0.1 µM) | IC50 (second compound 0.316 µM) | IC50 (second compound 1 µM) | IC50 (second compound 3.16 µM)
inactive: viability, T/C [1] 48.6% | viability, T/C [2] 55.6% | viability, T/C [3] 62.2% | viability, T/C [4] 46.3% | viability, T/C [5] 54.8% | viability, T/C [6] 56.8% | viability, T/C [7] 54.5% | viability, T/C [8] 55.9% | viability, T/C [9] 60.8% | viability, T/C [10] 56.3% | viability, T/C [11] 54.5% | viability, T/C [12] 46.8% | viability, T/C [13] 65.5% | viability, T/C [14] 70.8% | viability, T/C [15] 72.2% | viability, T/C [16] 58.8% | viability, T/C [17] 60.6% | viability, T/C [18] 49.5% | viability, T/C [19] 57.6% | viability, T/C [20] 67.2% | viability, T/C [21] 71.3% | viability, T/C [22] 69.8% | viability, T/C [23] 58.3% | viability, T/C [24] 39.7% | viability, T/C [25] 62.9% | viability, T/C [26] 72.7% | viability, T/C [27] 70.2% | viability, T/C [28] 61.8% | viability, T/C [29] 50.9% | viability, T/C [30] 41.3%
3.3 µM: IC50 (second compound 10 µM)

CC1COCCN1c1cc(-c2ccnn2C)c2ccnc(-c3ccn[nH]3)c2n1 (stereo not given) + NC1CC1c1ccc(-c2cccc(O)c2)cc1
inactive: viability, T/C [31] 15.7% | viability, T/C [32] 16.1% | viability, T/C [1] 17.3% | viability, T/C [2] 25.2% | viability, T/C [3] 29.5% | viability, T/C [4] 10.9% | viability, T/C [33] 23.3% | viability, T/C [34] 16.2% | viability, T/C [7] 17.9% | viability, T/C [8] 26.1% | viability, T/C [9] 28.5% | viability, T/C [10] 10.6% | viability, T/C [35] 22.9% | viability, T/C [36] 19.6% | viability, T/C [13] 18.9% | viability, T/C [14] 25.4% | viability, T/C [15] 26.6% | viability, T/C [16] 10.6% | viability, T/C [37] 22.8% | viability, T/C [38] 19.7% | viability, T/C [19] 21.1% | viability, T/C [20] 24.9% | viability, T/C [21] 26.1% | viability, T/C [22] 9.32% | viability, T/C [39] 26.7% | viability, T/C [40] 22.6% | viability, T/C [25] 22.5% | viability, T/C [26] 26.9% | viability, T/C [27] 22.4% | viability, T/C [28] 9.48%
< 0.00316 µM: IC50 (second compound 0.1 µM) | IC50 (second compound 0.316 µM) | IC50 (second compound 1 µM) | IC50 (second compound 3.16 µM) | IC50 (second compound 10 µM)

COc1ccc([C@@H](O)c2cc(-c3ncnc4cc(N5CCOCC5)ccc34)c(F)cc2Cl)nn1 + NC1CC1c1ccc(-c2cccc(O)c2)cc1
1.23 µM: IC50 (second compound 0.1 µM)
0.836 µM: IC50 (second compound 10 µM)
1.31 µM: IC50 (second compound 1 µM)
1.64 µM: IC50 (second compound 0.316 µM)
inactive: viability, T/C [1] 72.7% | viability, T/C [2] 78.3% | viability, T/C [3] 73.6% | viability, T/C [4] 49.9% | viability, T/C [5] 36.5% | viability, T/C [6] 21.6% | viability, T/C [7] 74.3% | viability, T/C [8] 69.5% | viability, T/C [9] 68.2% | viability, T/C [10] 57.6% | viability, T/C [11] 39.9% | viability, T/C [12] 20.6% | viability, T/C [13] 76.1% | viability, T/C [14] 72% | viability, T/C [15] 63.1% | viability, T/C [16] 55.5% | viability, T/C [17] 37.3% | viability, T/C [18] 20.5% | viability, T/C [19] 74.5% | viability, T/C [20] 78.7% | viability, T/C [21] 65.4% | viability, T/C [22] 53.1% | viability, T/C [23] 35.2% | viability, T/C [24] 21.7% | viability, T/C [25] 75.3% | viability, T/C [26] 70.6% | viability, T/C [27] 59.8% | viability, T/C [28] 49.9% | viability, T/C [29] 31.8% | viability, T/C [30] 21.6%
1.21 µM: IC50 (second compound 3.16 µM)

O=C(C=Cn1cnc(-c2cc(C(F)(F)F)cc(C(F)(F)F)c2)n1)NNc1cnccn1 + NC1CC1c1ccc(-c2cccc(O)c2)cc1
0.0178 µM: IC50 (second compound 10 µM)
0.219 µM: IC50 (second compound 0.1 µM)
0.168 µM: IC50 (second compound 1 µM)
0.205 µM: IC50 (second compound 0.316 µM)
inactive: viability, T/C [31] 81.3% | viability, T/C [32] 75% | viability, T/C [1] 85.6% | viability, T/C [2] 65.6% | viability, T/C [3] 42.5% | viability, T/C [4] 23.1% | viability, T/C [33] 69.8% | viability, T/C [34] 79.1% | viability, T/C [7] 78.5% | viability, T/C [8] 78% | viability, T/C [9] 34.2% | viability, T/C [10] 22.7% | viability, T/C [35] 65.1% | viability, T/C [36] 66.5% | viability, T/C [13] 79.3% | viability, T/C [14] 53.6% | viability, T/C [15] 40.5% | viability, T/C [16] 19.4% | viability, T/C [37] 67.2% | viability, T/C [38] 61.2% | viability, T/C [19] 52.2% | viability, T/C [20] 50.4% | viability, T/C [21] 36.9% | viability, T/C [22] 17.5% | viability, T/C [39] 56.6% | viability, T/C [40] 56.9% | viability, T/C [25] 43.6% | viability, T/C [26] 36.5% | viability, T/C [27] 24.7% | viability, T/C [28] 16.8%
0.075 µM: IC50 (second compound 3.16 µM)

COc1cc(C2c3cc4c(cc3C(OC3OC5COC(C)OC5C(O)C3O)C3COC(=O)C23)OCO4)cc(OC)c1O (stereo not given) + NC1CCC(NC2CC2c2ccccc2)CC1
0.0598 µM: IC50 (second compound 1 µM)
0.0791 µM: IC50 (second compound 3.16 µM)
active: viability, T/C (second compound 0.1 µM, first compound 0.949 µM) 9.48% | viability, T/C (second compound 0.1 µM, first compound 3 µM) 7.12% | viability, T/C (second compound 0.316 µM, first compound 0.949 µM) 10.4% | viability, T/C (second compound 0.316 µM, first compound 3 µM) 6.65% | viability, T/C (second compound 1 µM, first compound 0.949 µM) 8.2% | viability, T/C (second compound 1 µM, first compound 3 µM) 6.77% | viability, T/C (second compound 3.16 µM, first compound 3 µM) 7.34%
0.0767 µM: IC50 (second compound 0.316 µM)
0.0722 µM: IC50 (second compound 10 µM)
0.0714 µM: IC50 (second compound 0.1 µM)
inactive: viability, T/C (second compound 0.1 µM, first compound 0.00949 µM) 106% | viability, T/C (second compound 0.1 µM, first compound 0.03 µM) 92.6% | viability, T/C (second compound 0.1 µM, first compound 0.0949 µM) 35.4% | viability, T/C (second compound 0.1 µM, first compound 0.3 µM) 15.4% | viability, T/C (second compound 0.316 µM, first compound 0.00949 µM) 102% | viability, T/C (second compound 0.316 µM, first compound 0.03 µM) 88.5% | viability, T/C (second compound 0.316 µM, first compound 0.0949 µM) 40.6% | viability, T/C (second compound 0.316 µM, first compound 0.3 µM) 15.8% | viability, T/C (second compound 1 µM, first compound 0.00949 µM) 93.3% | viability, T/C (second compound 1 µM, first compound 0.03 µM) 77.7% | viability, T/C (second compound 1 µM, first compound 0.0949 µM) 30.6% | viability, T/C (second compound 1 µM, first compound 0.3 µM) 16.2% | viability, T/C (second compound 3.16 µM, first compound 0.00949 µM) 96.6% | viability, T/C (second compound 3.16 µM, first compound 0.03 µM) 91.3% | viability, T/C (second compound 3.16 µM, first compound 0.0949 µM) 41.2% | viability, T/C (second compound 3.16 µM, first compound 0.3 µM) 17.7% | viability, T/C (second compound 3.16 µM, first compound 0.949 µM) 9.09% | viability, T/C (second compound 10 µM, first compound 0.00949 µM) 99.4% | viability, T/C (second compound 10 µM, first compound 0.03 µM) 94.4% | viability, T/C (second compound 10 µM, first compound 0.0949 µM) 35.6% | viability, T/C (second compound 10 µM, first compound 0.3 µM) 18% | viability, T/C (second compound 10 µM, first compound 0.949 µM) 7.96% | viability, T/C (second compound 10 µM, first compound 3 µM) 6.31%

Nc1ncn(C2CC(O)C(CO)O2)c(=O)n1 (stereo not given) + NC1CCC(NC2CC2c2ccccc2)CC1
inactive: viability, T/C [31] 101% | viability, T/C [32] 108% | viability, T/C [1] 93.6% | viability, T/C [2] 79.7% | viability, T/C [3] 69.6% | viability, T/C [4] 64.2% | viability, T/C [33] 97.4% | viability, T/C [34] 96% | viability, T/C [7] 85.6% | viability, T/C [8] 83.4% | viability, T/C [9] 63% | viability, T/C [10] 55.3% | viability, T/C [35] 99.3% | viability, T/C [36] 90.1% | viability, T/C [13] 85.3% | viability, T/C [14] 74.4% | viability, T/C [15] 60.5% | viability, T/C [16] 56.3% | viability, T/C [37] 96.4% | viability, T/C [38] 95.4% | viability, T/C [19] 93.1% | viability, T/C [20] 75.4% | viability, T/C [21] 59.1% | viability, T/C [22] 49% | viability, T/C [39] 95.3% | viability, T/C [40] 91% | viability, T/C [25] 92.8% | viability, T/C [26] 76.5% | viability, T/C [27] 62.5% | viability, T/C [28] 51.6%
> 1 µM: IC50 (second compound 0.1 µM) | IC50 (second compound 0.316 µM) | IC50 (second compound 1 µM) | IC50 (second compound 10 µM)
0.941 µM: IC50 (second compound 3.16 µM)
